Measurements from PMC7018803, “A randomized, placebo-controlled, phase 1 study to evaluate the effects of TAK-063 on ketamine-induced changes in fMRI BOLD signal in healthy subjects” (Psychopharmacology, 2019).

Tests used:
[1] = test system: healthy male subjects; experiment: Resting state fMRI BOLD signal before ketamine infusion; type: in vivo, human; details: 3-30 mg
Method: Subjects checked in on day − 1 of each treatment period during which vital signs, electrocardiogram (ECG), and laboratory safety tests were repeated. On day 1 of each treatment period, subjects received a 3-, 10-, or 30-mg TAK-063 dose or placebo tablets. Participants then relaxed, slept, or watched movies while remaining in the research environment. Ketamine (0.12 mg/kg intravenous bolus over 60 s followed by a continuous infusion of 0.31 mg/kg/h over approximately 150 min) was administered 4 h after TAK-063 or placebo (Fig. 1). This ketamine dose was based on a previous study that achieved steady-state concentrations of 75 ng/mL and provided a robust BOLD signal with minimal psychotomimetic symptoms (De Simoni et al. [2013]).
The scanning protocol for the current study was very comprehensive and included multiple MR approaches. This publication reports the BOLD fMRI data for the working memory task, but also resting state fMRI. The magnetic scanning portion of the neuroimaging test battery was initiated 20 min before ketamine dosing. Imaging was performed using a 3 Tesla Siemens Trio scanner. The MR scanning protocol was initiated 20 min before ketamine dosing; prior to scanning, a structural magnetization prepared rapid gradient echo (MPRAGE) scan was collected. […]

[2] = test system: healthy male subjects; experiment: Safety assessments (adverse events, laboratory tests, ECG, vital signs); type: in vivo, human
Source text: The Statistics Department at Takeda Development Center Americas, Inc., generated a randomization schedule before the start of the study, and this randomization schedule maintained the investigational drug blind. During randomization, subjects were assigned a four-digit randomization sequence that encoded assignment of subjects to the treatment schedule. Subjects were randomized to one of nine treatment schedules and received placebo + ketamine (regimen A) and two of the following three treatment regimens: 3 mg of TAK-063 + ketamine (regimen B), 30 mg of TAK-063 + ketamine (regimen C), and 300 mg of TAK-063 + ketamine (regimen D). […] Treatment sequences are presented in Online Resource Supplementary Table S1. The study consisted of multiple visits with a different treatment protocol on each visit. The visits were standardized and included a screening period (day − 28 to day − 2), check-in (day − 1), a treatment period (days 1), completion of treatment visit (day 2), and a follow-up visit (day 14 ± 3 days after last TAK-063 dose). After each treatment period, subjects stayed overnight at the study site for observation and were discharged on day 2. Each participant completed the study when they completed the follow-up visit after their last treatment2.
AEs, clinical laboratory results, ECG, vital signs, and suicide assessments were recorded after administration of TAK-063 and throughout the remainder of the study. Intensity of AEs was classified as mild, moderate, and severe, and each AE was assessed for association with study drug. AEs were assessed throughout the 2-day study visit, at the three treatment visits, at the study exit, and at the follow-up visit. ECG, vital signs, and clinical laboratory results were assessed at visit 1 during screening, day − 1, day 1 of each treatment period, day 2 of period 3 (study exit), the early termination visit, and the follow-up visit.
In this study, the safety set, used for demographic and safety evaluations, included subjects who receive at least one dose of study medication. The PK set included all subjects in the safety set with at least one available drug concentration measurement. The PD set included all subjects in the safety set and with at least one valid PD assessment.

[3] = test system: phosphodiesterase 10A (PDE10A); parameters: method as in Seeger et al. [2003]; Suzuki et al. [2015]; details: ref Seeger et al. [2003]; Suzuki et al. [2015]; cited from earlier work
[4] = all 27 subjects, TAK-063 or placebo followed by ketamine
[5] = all subjects, most frequently reported AEs

In the case of `COc1cn(-c2ccc(-n3cccn3)cc2F)nc(-c2ccnn2-c2ccccc2)c1=O` [TAK-063], the “effects on fMRI BOLD signal during the resting state before ketamine infusion” value [1] was “region-specific effects”, the “EPS-type AE in one subject” value ([2]; 30 mg) was “restlessness” and the “EPS-type AE in one subject” value ([2]; 300 mg) was “muscle tightness and restlessness”. For the same compound, the “discontinuation because of EPS” value ([2]; 300 mg) was “One subject”, the “tolerability of the 300-mg dose” value ([2]; 300 mg, led to change of dose to 10 mg) was “higher than expected rates of dystonia and nausea” and the “subjects with AEs consistent with extrapyramidal symptoms (EPS)” value ([2]; TAK-063 group overall) was 8.0%. The “subjects with AEs consistent with extrapyramidal symptoms (EPS) (number)” value ([2]; TAK-063 group overall) was “two”, the “subjects who experienced AEs related to the study drug” value [2, 4] was 88.9% and the “subjects who experienced AEs related to the study drug (number)” value [2, 4] was 24 subjects. For the same compound, the “severity of drug-related AEs” value ([2]; all subjects) was “mild to moderate”, the fatigue [2, 5] was 25.9% and the nausea [2, 5] was 40.7%. The somnolence [2, 5] was 40.7%, the vomiting [2, 5] was 63.0% and the “clinically significant changes from baseline in vital signs, clinical laboratory tests and 12-lead ECGs” value ([2]; baseline to post dose) was “No changes”. The “deaths or serious AEs” value ([2]; during the study) was “No deaths or serious AEs”, the “participants discontinuing study drug because of AEs” value ([2]; in vivo) was “one” and the “overall safety and tolerability” value ([2]; single oral doses with ketamine) was “safe and well tolerated”. The PDE10A inhibition [3] was “selective inhibitor”.
